What was measured:
[1] = format: physicochemical
Source text: The low solubility in water of certain N-hydroxyurea 5- and/or 12-lipoxygenase inhibitors prevents these beneficial agents from broader use than they would otherwise enjoy if aqueous formulations could be prepared at therapeutically effective concentrations. […] In addition to its poor solubility, zileuton and likely other N-hydroxyurea lipoxygenase inhibitors are predicted to be chemically unstable in aqueous solution for storage at room temperature for prolonged periods of time [Insert Reference]. Degradation is consistent with specific hydronium- or water-catalyzed hydrolysis to afford the carbamic acid, which immediately loses carbon dioxide to generate the hydroxylamine as shown below. [drawing 2]
No buffer catalysis has been observed for zileuton. Using acid- and water-catalyzed rate constants at 25° C., the pseudo first-order rate constant is determined to be approximately 7.8×10^−5 h^−1 over a pH range of about 3.5 to about 7.5. The shelf life at 10% drug loss is calculated to be 57.3 days at an optimal pH of 5.6.
Based on literature data [Alvarez, F J; Slade, R T. Kinetics and mechanism of degradation of zileuton, a potent 5-lipoxygenase inhibitor. Pharm. Res., 1992, 9(11): 1465-1473], zileuton in solution is expected to have adequate short-term stability (at least 1 month at 25° C.) over a pH range of 4 to 7.

[2] = cited from earlier work
[3] = 25° C., pH range of 4 to 7, literature data; cited from earlier work

Structure (SMILES): CC(c1cc2ccccc2s1)N(O)C(N)=O (racemic) [zileuton, ((±)-1-(1-benzo[b]thien-2-ylethyl)-1-hydroxyurea]
- pseudo first-order rate constant (degradation) [1]: approximately 7.8×10^−5 h^−1
- shelf life at 10% drug loss ([1]; optimal pH of 5.6, 25° C.): 57.3 days
- solubility in acetonitrile ([2]; acetonitrile): slightly soluble
- solubility in hexane and water ([2]; hexane and water): practically insoluble
- solubility in methanol and ethanol ([2]; methanol and ethanol): soluble
- water solubility ([2]; water, 25° C.): 80 to 140 µg/mL
- short-term stability in solution [3]: at least 1 month
